PMC5053523, “In Vitro Antibacterial Activity of Rhodanine Derivatives against Pathogenic Clinical Isolates” (PLoS ONE, 2016)
Converted amounts (≈) assume the structure as drawn. Like-named read-outs stand apart in the source and are kept apart here.

Key:
Assay type in all cases: cell-based
[1] = test system: vancomycin resistant enterococci (VRE); assay: Broth microdilution MIC50/MIC90, VRE panel; conditions: Enterococcus, 10 VRE strains
[2] = test system: Vancomycin Resistant Staphylococcus aureus (VRSA); assay: Broth microdilution MIC/MBC, VRSA; conditions: for MBC / MIC: VRSA
Bacillus anthracis = assay: microbe, parasite or virus in culture
B. cereus = assay: Broth microdilution MIC/MBC, B. cereus; conditions: Bacillus cereus; for MBC: read-out: MBC; for MIC: read-out: MIC
Description: The broth microdilution technique was used, followed by subculturing on agar plates that were rhodanine—free.

B. licheniformis = assay: Broth microdilution MIC/MBC, B. licheniformis; conditions: Bacillus licheniformis; for MBC: read-out: MBC; for MIC: read-out: MIC
Mycobacterium smegmatis = assay: Broth microdilution MIC/MBC, Mycobacterium smegmatis; conditions: Mycolicibacterium smegmatis, ATCC14468, M. Smegmatis ATCC 14468
Acinetobacter baumannii [3] = assay: Broth microdilution MIC, Acinetobacter baumannii
Escherichia coli O157:H7 [4] = assay: MIC with/without sub-MIC colistin, Escherichia coli O157:H7
Method in brief: (§1)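 Compounds plus sub-inhibitory colistin or PMBN; MIC against Gram-negatives, with control antibiotics in parallel.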

Salmonella Typhimurium [5] = assay: MIC with/without sub-MIC colistin, Salmonella Typhimurium
Method in brief: as §1

Klebsiella pneumoniae = assay: MIC with/without sub-MIC colistin, Klebsiella pneumoniae
Method in brief: as §1

Pseudomonas aeruginosa = assay: MIC with/without sub-MIC colistin, Pseudomonas aeruginosa
Method in brief: as §1

Acinetobacter baumannii [6] = assay: MIC with/without PMBN, Acinetobacter baumannii
Method in brief: as §1

Escherichia coli O157:H7 [7] = assay: MIC with/without PMBN, Escherichia coli O157:H7
Method in brief: as §1

Salmonella Typhimurium [8] = assay: MIC with/without PMBN, Salmonella Typhimurium
Method in brief: as §1

Escherichia coli Δ acrAB = assay: MIC against E. coli 1411 and AcrAB efflux pump deficient E. coli SM1411Δ acrAB
Method in brief: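 Sub-MIC colistin or PMBN added to broth MIC tests of rhodanines and reference antibiotics against Gram-negative strains; AcrAB efflux-deficient E. coli SM1411ΔacrAB also tested.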

[9] = NRS201, B. cereus NRS 201 NR-2488
[10] = NCIB9375, B. licheniformis Gibson 46 (NCIB 9375) NR-2494
[11] = NRS712, B. licheniformis NRS 712 NR-2499
[12] = Salmonella enterica, ATCC 700720 / TYPHIMURIUM

Molecule `O=C(O)[C@H](Cc1ccccc1)N1C(=O)/C(=C/c2cccc(-c3ccccc3)c2)SC1=S` [Rh 5] has an MIC90 ([1]; VRE, read-out: MIC 90) of 16 µM (≈ 7.13 µg/mL), an MIC50 ([1]; read-out: MIC 50) of 16 µM (≈ 7.13 µg/mL) and an MIC50 ([2]; 15 VRSA strains, read-out: MIC 50) of 8 µM (≈ 3.56 µg/mL). It also gave an MIC90 ([2]; 15 VRSA strains, read-out: MIC 90) of 8 µM (≈ 3.56 µg/mL), an MBC ([2]; VRSA 1, read-out: MBC) of 16 µM (≈ 7.13 µg/mL) and an MIC ([2]; VRSA 1, read-out: MIC) of 8 µM (≈ 3.56 µg/mL). The MBC ([2]; VRSA 2, read-out: MBC) was 8 µM (≈ 3.56 µg/mL), the MIC ([2]; VRSA 2, read-out: MIC) was 8 µM (≈ 3.56 µg/mL) and the MBC ([2]; VRSA 3a, read-out: MBC) was 16 µM (≈ 7.13 µg/mL). For the same molecule, the MIC ([2]; VRSA 3a, read-out: MIC) was 8 µM (≈ 3.56 µg/mL), the MBC ([2]; VRSA 3b, read-out: MBC) was 16 µM (≈ 7.13 µg/mL) and the MIC ([2]; VRSA 3b, read-out: MIC) was 8 µM (≈ 3.56 µg/mL). For the same molecule, the MBC ([2]; VRSA 4, read-out: MBC) was 16 µM (≈ 7.13 µg/mL), the MIC ([2]; VRSA 4, read-out: MIC) was 8 µM (≈ 3.56 µg/mL) and the MBC ([2]; VRSA 5, read-out: MBC) was 16 µM (≈ 7.13 µg/mL). For the same molecule, the MIC ([2]; VRSA 5, read-out: MIC) was 8 µM (≈ 3.56 µg/mL), the MBC ([2]; VRSA 6, read-out: MBC) was 16 µM (≈ 7.13 µg/mL) and the MIC ([2]; VRSA 6, read-out: MIC) was 8 µM (≈ 3.56 µg/mL). For the same molecule, the MBC ([2]; VRSA 7, read-out: MBC) was 32 µM (≈ 14.3 µg/mL), the MIC ([2]; VRSA 7, read-out: MIC) was 8 µM (≈ 3.56 µg/mL) and the MBC ([2]; VRSA 8, read-out: MBC) was 16 µM (≈ 7.13 µg/mL). For the same molecule, the MIC ([2]; VRSA 8, read-out: MIC) was 8 µM (≈ 3.56 µg/mL), the MBC ([2]; VRSA 9, read-out: MBC) was 16 µM (≈ 7.13 µg/mL) and the MIC ([2]; VRSA 9, read-out: MIC) was 16 µM (≈ 7.13 µg/mL). It also gave an MBC ([2]; VRSA 10, read-out: MBC) of 16 µM (≈ 7.13 µg/mL), an MIC ([2]; VRSA 10, read-out: MIC) of 8 µM (≈ 3.56 µg/mL) and an MBC ([2]; VRSA 11a, read-out: MBC) of 16 µM (≈ 7.13 µg/mL). The MIC ([2]; VRSA 11a, read-out: MIC) was 8 µM (≈ 3.56 µg/mL), the MBC ([2]; VRSA 11b, read-out: MBC) was 16 µM (≈ 7.13 µg/mL) and the MIC ([2]; VRSA 11b, read-out: MIC) was 8 µM (≈ 3.56 µg/mL). For the same molecule, the MBC ([2]; VRSA 12, read-out: MBC) was 16 µM (≈ 7.13 µg/mL), the MIC ([2]; VRSA 12, read-out: MIC) was 8 µM (≈ 3.56 µg/mL) and the MBC ([2]; VRSA 13, read-out: MBC) was 16 µM (≈ 7.13 µg/mL). It also gave an MIC ([2]; VRSA 13, read-out: MIC) of 8 µM (≈ 3.56 µg/mL), an MBC (Bacillus anthracis; Bacillus anthracis AMES35) of 2 µM (≈ 0.891 µg/mL) and an MIC (Bacillus anthracis; Bacillus anthracis AMES35) of 2 µM (≈ 0.891 µg/mL). The MBC (Bacillus anthracis; Bacillus anthracis UM23) was 2 µM (≈ 0.891 µg/mL), the MIC (Bacillus anthracis; Bacillus anthracis UM23) was 2 µM (≈ 0.891 µg/mL) and the MBC (Bacillus anthracis; Bacillus anthracis Weybridge) was 4 µM (≈ 1.78 µg/mL). For the same molecule, the MIC (Bacillus anthracis; Bacillus anthracis Weybridge) was 2 µM (≈ 0.891 µg/mL), the MBC (B. cereus; B. cereus BAG1O-2 NR-28582) was 4 µM (≈ 1.78 µg/mL) and the MIC (B. cereus; B. cereus BAG1O-2 NR-28582) was 4 µM (≈ 1.78 µg/mL). It also gave an MBC (B. cereus; B. cereus BAG1X1-1 NR-28575) of 4 µM (≈ 1.78 µg/mL), an MIC (B. cereus; B. cereus BAG1X1-1 NR-28575) of 4 µM (≈ 1.78 µg/mL) and an MBC (B. cereus; B. cereus BAG1X2-1 NR-28578) of 4 µM (≈ 1.78 µg/mL). The MIC (B. cereus; B. cereus BAG1X2-1 NR-28578) was 4 µM (≈ 1.78 µg/mL), the MBC (B. cereus; B. cereus G9241 NR-9564) was 8 µM (≈ 3.56 µg/mL) and the MIC (B. cereus; B. cereus G9241 NR-9564) was 8 µM (≈ 3.56 µg/mL). It also gave an MBC (B. cereus; B. cereus VD014 NR-22141) of 8 µM (≈ 3.56 µg/mL), an MIC (B. cereus; B. cereus VD014 NR-22141) of 4 µM (≈ 1.78 µg/mL) and an MBC (B. cereus; B. cereus VD115 NR-22148) of 4 µM (≈ 1.78 µg/mL). It also gave an MIC (B. cereus; B. cereus VD115 NR-22148) of 4 µM (≈ 1.78 µg/mL), an MBC (B. cereus; B. cereus VD148 NR-22150) of 4 µM (≈ 1.78 µg/mL) and an MIC (B. cereus; B. cereus VD148 NR-22150) of 4 µM (≈ 1.78 µg/mL). It also gave an MBC (B. cereus; [9]) of 4 µM (≈ 1.78 µg/mL), an MIC (B. cereus; [9]) of 4 µM (≈ 1.78 µg/mL) and an MBC (B. licheniformis; [10]) of 8 µM (≈ 3.56 µg/mL). It also gave an MIC (B. licheniformis; [10]) of 8 µM (≈ 3.56 µg/mL), an MBC (B. licheniformis; [11]) of 8 µM (≈ 3.56 µg/mL) and an MIC (B. licheniformis; [11]) of 8 µM (≈ 3.56 µg/mL). It also gave an MBC (Mycobacterium smegmatis; read-out: MBC) of 16 µM (≈ 7.13 µg/mL), an MIC (Mycobacterium smegmatis; read-out: MIC) of 16 µM (≈ 7.13 µg/mL) and an MIC (Acinetobacter baumannii [3]; ATCC13345) greater than 128 µM. For the same molecule, the MIC (Acinetobacter baumannii [3]; ATCC17786) was greater than 128 µM, the MIC (Escherichia coli O157:H7 [4]; Escherichia coli O157:H7 ATCC 35150, colistin (+) […], read-out: MIC) was greater than 64 µM and the MIC (Escherichia coli O157:H7 [4]; Escherichia coli O157:H7 ATCC 700728, colistin (+) […], read-out: MIC) was greater than 64 µM. It also gave an MIC (Escherichia coli O157:H7 [4]; Escherichia coli, ATCC35150) greater than 128 µM, an MIC (Escherichia coli O157:H7 [4]; Escherichia coli, ATCC700728) greater than 128 µM and an MIC (Salmonella Typhimurium [5]; Salmonella Typhimurium ATCC 700720, colistin (+) […], read-out: MIC) greater than 64 µM. The MIC (Salmonella Typhimurium [5]; [12]) was greater than 128 µM, the MIC (Klebsiella pneumoniae; Klebsiella pneumoniae ATCC BAA 2146, colistin (+) […]) was greater than 64 µM and the MIC (Klebsiella pneumoniae; Klebsiella pneumoniae, BAA2146) was greater than 128 µM. For the same molecule, the MIC (Pseudomonas aeruginosa; Pseudomonas aeruginosa ATCC 921, colistin (+) […], read-out: MIC) was greater than 64 µM, the MIC (Pseudomonas aeruginosa; Pseudomonas aeruginosa, ATCC921) was greater than 128 µM and the MIC (Acinetobacter baumannii [6]; Acinetobacter baumannii ATCC BAA747, PMBN (+) 4 μg/mL, read-out: MIC) was greater than 64 µM. The MIC (Acinetobacter baumannii [6]; Acinetobacter baumannii ATCC BAA19606, PMBN (+) 4 μg/mL, read-out: MIC) was greater than 64 µM, the MIC (Acinetobacter baumannii [6]; Acinetobacter baumannii, ATCCBAA747) was greater than 128 µM and the MIC (Acinetobacter baumannii [6]; Acinetobacter baumannii, ATCCBAA19606) was greater than 128 µM. The MIC (Escherichia coli O157:H7 [7]; Escherichia coli O157:H7 ATCC 35150, PMBN (+) 4 μg/mL, read-out: MIC) was 8 µM (≈ 3.56 µg/mL), the MIC (Escherichia coli O157:H7 [7]; Escherichia coli O157:H7 ATCC 700728, PMBN (+) 4 μg/mL, read-out: MIC) was greater than 64 µM and the MIC (Escherichia coli O157:H7 [7]; Escherichia coli, ATCC35150) was greater than 256 µM. The MIC (Escherichia coli O157:H7 [7]; Escherichia coli, ATCC700728) was greater than 128 µM, the MIC (Salmonella Typhimurium [8]; Salmonella Typhimurium ATCC 700720, PMBN (+) 4 μg/mL, read-out: MIC) was greater than 128 µM and the MIC (Salmonella Typhimurium [8]; [12]) was greater than 128 µM. The MIC (Escherichia coli Δ acrAB; E.coli 1411) was greater than 64 µM and the MIC (Escherichia coli Δ acrAB; E.coli 1411 SM (Δ acrAB, AcrAB efflux pump deficient)) was greater than 64 µM.
